Reference: US20260297060A1, “COMPOUNDS FOR THE DEGRADATION OF MUTANT BRAF” (C4 THERAPEUTICS, INC., priority 2023, published 2026)
Like-named read-outs stand apart in the source and are kept apart here.

Tests used:
[1] = Example 9 pharmacokinetics assay for efficacy study Part I and II (plasma, liver); type: in vivo, BALB/c nude mice; conditions: mouse, po, 100 mg/kg, p.o., QD × 14 days, 6 h following last treatment, ± SEM
Protocol: For efficacy study Part I, agents were tested in the A375 human melanoma xenografts. Compound 218 and Compound 157 were administered to BALB/c nude mice bearing A375 xenografts from day 0 and dosed twice a day (BID) for 14 days. Compound 218 and Compound 157 were dosed at 10 mg/kg via p.o.. Dabrafenib was administered from day 1 daily (QD) for 14 days and dosed at 100 mg/kg via p.o..
For efficacy study Part II, agents were tested in the A375 human melanoma xenografts model. Compound 133, Compound 144 and Compound 198 were administered to BALB/c nude mice bearing A375 xenografts from day 0 and dosed twice a day (BID) for 14 days. Compound 133, Compound 144 and Compound 198 were dosed at 10 mg/kg via p.o..
The plasma samples were collected at predetermined time points for PK analysis. The mice were euthanized at predetermined time points post the treatment. The blood samples were collected into the 1.5 mL Eppendorf tubes containing 15 μL of 0.5 M EDTA-K2. And then the anticoagulant blood samples were centrifuged at 2,500 g at 4° C. for 15 minutes. The plasma samples were separated into 2 aliquots. The 1st was used for PK analysis, and the 2nd served as backup. The samples were stored at −80° C. before bioanalysis.
Liver samples were collected at predetermined time points for PK analysis. The left lobe of the liver was dissected out and split into 2 parts. The 1st part was used for PK analysis and the 2nd part served as the backup for the study. The samples were transferred into pre-labeled tubes and quickly froze in liquid nitrogen within 2 minutes after dissection. The samples were stored at −80° C. before bioanalysis.
The harvested plasma and liver samples were processed for pharmacokinetics analysis by LC-MS/MS with a concentration range of 1.00-1,000 ng/mL for Dabrafenib in plasma and liver homogenate, 10.0-10,000 ng/mL for Compound 218, Compound 157, Compound 133, Compound 144 and Compound 198 in plasma and liver homogenate.

[2] = test system: A375 human melanoma cancer cell derived xenografts, intracranial; assay: Example 12 efficacy study, intracranial A375-luciferase CNS model: survival; type: in vivo, BALB/c nude mice; conditions: 35 mg/kg PO/QD; vehicle median 18 days
Protocol: For the efficacy study, agents were tested in A375 human melanoma cancer cell derived xenografts (CDX). This cell line was isolated from the primary melanoma of a person and is known to have a homozygous BRAF V600E mutation. The A375 tumor cells were maintained in vitro in DMEM medium supplemented with 10% fetal bovine serum and 1% Penicillin-Streptomycin at 37° C. in an atmosphere of 5% CO2 in air. The tumor cells were routinely subcultured twice weekly. The cells growing in an exponential growth phase were harvested and counted for tumor inoculation.
For this CNS study, A375 cells with a luciferase tag for tracking tumor cell signal, were injected intracranially into 6-8-week-old female BALB/c nude mice (Zhejiang Vital River Laboratory Animal Co., LTD. Beijing, China). The mice were anaesthetized, restrained, and sterilized prior to surgery. A sagittal cut was made above the anterior parietal and occipital bone with sterilized scalpel, the skull was unrevealed and cleaned with cotton bud, in this case the anterior fontanel could be available. A 2 mm hole was created to the right of the anterior fontanel and 0.5 mm ahead of the coronal on the skull with a cranial drill. Cell suspensions in 20% Matrigel were mixed and aspirated into injector carefully to avoid bubbles and wiped to avoid extracranial tumor genesis. The needle was inserted vertically into the cranial hole and the cell mixture was slowly injected for 2 minutes and held for another minute to decrease the drainage of the cell suspension. The wound was closed, and a subcutaneous injection of 5 mg/kg Meloxicam was given to relieve the pain and continued for 3 days. The mice were monitored closely until they woke up after the surgery. During the study, the care and use of animals was conducted in accordance with the regulations of the Association for Assessment and Accreditation of Laboratory Animal Care (AAALAC). After inoculation, the animals were checked daily for morbidity and mortality. At the time of routine monitoring, the animals would be checked for any effects of tumor growth and treatments on normal behavior such as mobility, food and water consumption, body weight gain/loss, eye/hair matting, and any other abnormal effect.
The administration of the test agents began three days after inoculation. CNS tumor-bearing mice were randomly assigned to groups of 8 mice and administered Compound 26 at 10 mg/kg orally (PO) twice a day (BID), Compound 141 at 10 mg/kg PO/BID, encorafenib at 35 mg/kg once a day orally, (PO/QD), or the vehicle alone PO/BID. Measurements for the presence of the A375 luciferase (CRL-1619-LUC2, ATCC, Manassas, VA, USA) cells within the CNS were done with IVIS Lumina III machine. Images were collected twice weekly to follow the growth of the models. The tumor-bearing mice were weighed and intraperitoneally administered luciferin (Perkin Elmer Inc-122799) at a dosage of 150 mg/kg. After 10 min, mice were pre-anesthetized with the mixture gas of oxygen and isoflurane. The bioluminescence value at 15 min post luciferin injection was recorded as the final value and plotted. The endpoint for individual mice was reached when the mouse body weight decreased by 20% when compared to their starting weight.

| concentration at 6 h ([1]; liver, read-out: Mean Concentration in Liver) | concentration at 6 h ([1]; plasma, read-out: Mean Concentration in Plasma) | SMILES | median survival [2] |
| --- | --- | --- | --- |
| 1240 ± 162 ng/g | 410 ± 58.2 ng/mL | CC(C)(C)c1nc(-c2cccc(NS(=O)(=O)c3c(F)cccc3F)c2F)c(-c2ccnc(N)n2)s1 [Dabrafenib, dabrafenib, reference compound] | – |
| – | – | COC(=O)N[C@@H](C)CNc1nccc(-c2cn(C(C)C)nc2-c2cc(Cl)cc(NS(C)(=O)=O)c2F)n1 [Encorafenib, encorafenib, reference compound] | 46 days |
